Data published in ChEMBL document CHEMBL4602678, “Identification of Holrhizins E-Q Reveals the Diversity of Nonribosomal Lipopeptides in Paraburkholderia rhizoxinica” (J Nat Prod, 2020).
Where a SMILES comes first, the peptide text is derived from it. The star is where a group is joined. Octanoyl = CCCCCCCC(=O)*; Hexanoyl = CCCCCC(=O)*

Columns and labels:
Aspergillus fumigatus = assay: Antimicrobial activity against Aspergillus fumigatus incubated for 24 hrs by Kirby-Bauer disk diffusion method; type: functional
HCT-116 = assay: Cytotoxicity against human HCT116 cells incubated for 2 days by MTT assay; type: functional, cell-based; conditions: HCT-116, 48 h
[1] = Cytotoxicity against human Kasumi cells incubated for 2 days by MTT assay; type: functional, cell-based; conditions: 48 h
A549 = assay: Cytotoxicity against human A549 cells incubated for 2 days by MTT assay; type: functional, cell-based; conditions: A549, 48 h
SGC-7901 = assay: Cytotoxicity against human SGC7901 cells incubated for 2 days by MTT assay; type: functional, cell-based; conditions: SGC-7901, 48 h
MDA-MB-231 = assay: Cytotoxicity against human MDA-MB-231 cells incubated for 2 days by MTT assay; type: functional, cell-based; conditions: MDA-MB-231, 48 h
K562 = assay: Cytotoxicity against human K562 cells incubated for 2 days by MTT assay; type: functional, cell-based; conditions: K562, 48 h
Rhizoctonia solani = assay: Antimicrobial activity against Rhizoctonia solani incubated for 24 hrs by Kirby-Bauer disk diffusion method; type: functional
HepG2 = assay: Cytotoxicity against human HepG2 cells incubated for 2 days by MTT assay; type: functional, cell-based; conditions: HepG2, 48 h
MCF7 = assay: Cytotoxicity against human MCF7 cells incubated for 2 days by MTT assay; type: functional, cell-based; conditions: MCF7, 48 h
Pseudomonas aeruginosa = assay: Antimicrobial activity against Pseudomonas aeruginosa […] ATCC 27853 incubated for 24 hrs by Kirby-Bauer disk diffusion method; type: functional
Bacillus subtilis = assay: Antimicrobial activity against Bacillus subtilis ATCC 6633 incubated for 24 hrs by Kirby-Bauer disk diffusion method; type: functional; conditions: ATCC 6633, 24 h
Staphylococcus aureus = assay: Antimicrobial activity against Staphylococcus aureus ATCC 29213 incubated for 24 hrs by Kirby-Bauer disk diffusion method; type: functional; conditions: ATCC 29213, 24 h
Escherichia coli = assay: Antimicrobial activity against Escherichia coli ATCC 35218 incubated for 24 hrs by Kirby-Bauer disk diffusion method; type: functional; conditions: ATCC 35218, 24 h
Candida albicans = assay: Antimicrobial activity against Candida albicans incubated for 24 hrs by Kirby-Bauer disk diffusion method; type: functional
[2] = Cytotoxicity against human 2B cells incubated for 2 days by MTT assay; type: cell-based; conditions: 48 h

SMILES	MIC (Aspergillus fumigatus) [µM]	IC50 (HCT-116) [µM]	IC50 [1] [µM]	IC50 (A549) [µM]	IC50 (SGC-7901) [µM]	IC50 (MDA-MB-231) [µM]	IC50 (K562) [µM]	MIC (Rhizoctonia solani) [µM]	IC50 (HepG2) [µM]	IC50 (MCF7) [µM]	MIC (Pseudomonas aeruginosa) [µM]	MIC (Bacillus subtilis) [µM]	MIC (Staphylococcus aureus) [µM]	MIC (Escherichia coli) [µM]	MIC (Candida albicans) [µM]	IC50 [2] [µM]
CCCCCCCC(=O)N[C@H](C(=O)N[C@@H](Cc1ccccc1)C(=O)N[C@@H](CCC(=O)O)C(=O)N[C@H](C(=O)N[C@@H](C)C(=O)N[C@@H](CC(C)C)C(=O)O)[C@@H](C)CC)C(C)C (Octanoyl-VFEIAL-OH)	> 100	> 40	> 40	> 40	> 40	> 40	> 40	> 100	> 40	> 40	> 100	> 100	> 100	> 100	> 100	> 40
CCCCCC(=O)N[C@H](C(=O)N[C@@H](Cc1ccccc1)C(=O)N[C@@H](CCC(=O)O)C(=O)N[C@@H](CC(C)C)C(=O)N[C@@H](C)C(=O)N[C@H](C(=O)O)[C@@H](C)CC)C(C)C (Hexanoyl-VFELAI-OH)	> 100	> 40	> 40	> 40	> 40	> 40	> 40	> 100	> 40	> 40	> 100	> 100	> 100	> 100	> 100	> 40
CCCCCCCC(=O)N[C@H](C(=O)N[C@@H](Cc1ccccc1)C(=O)N[C@@H](CCC(=O)O)C(=O)N[C@H](C(=O)O)[C@@H](C)CC)C(C)C (Octanoyl-VFEI-OH)	> 100	> 40	> 40	> 40	> 40	> 40	> 40	> 100	> 40	> 40	> 100	> 100	> 100	> 100	> 100	> 40
CCCCCC(=O)N[C@H](C(=O)N[C@@H](Cc1ccccc1)C(=O)N[C@@H](CCC(=O)O)C(=O)N[C@H](C(=O)N[C@@H](C)C(=O)N[C@@H](CC(C)C)C(=O)O)[C@@H](C)CC)C(C)C (Hexanoyl-VFEIAL-OH)	> 100	> 40	> 40	> 40	> 40	> 40	> 40	> 100	> 40	> 40	> 100	> 100	> 100	> 100	> 100	> 40
CCCCCCCC(=O)N[C@H](C(=O)N[C@@H](Cc1ccccc1)C(=O)N[C@@H](CCC(=O)O)C(=O)N[C@H](C(=O)N[C@@H](C)C(=O)N[C@H](C(=O)O)C(C)C)[C@@H](C)CC)C(C)C (Octanoyl-VFEIAV-OH)	> 100	> 40	> 40	> 40	> 40	> 40	> 40	> 100	> 40	> 40	> 100	> 100	> 100	> 100	> 100	> 40
CCCCCCCC(=O)N[C@H](C(=O)N[C@@H](Cc1ccccc1)C(=O)O)C(C)C (Octanoyl-Val-Phe-OH)	> 100	> 40	> 40	> 40	> 40	> 40	> 40	> 100	> 40	> 40	> 100	> 100	> 100	> 100	> 100	> 40
CCCCCCCC(=O)N[C@H](C(=O)N[C@@H](Cc1ccccc1)C(=O)N[C@@H](CCC(=O)O)C(=O)N[C@@H](CC(C)C)C(=O)N[C@@H](C)C(=O)N[C@H](C(=O)O)[C@@H](C)CC)C(C)C (Octanoyl-VFELAI-OH)	> 100	> 40	> 40	> 40	> 40	> 40	> 40	> 100	> 40	> 40	> 100	> 100	> 100	> 100	> 100	> 40
CCCCCCCC(=O)N[C@H](C(=O)N[C@@H](Cc1ccccc1)C(=O)N[C@@H](CCC(=O)O)C(=O)N[C@@H](CC(C)C)C(=O)N[C@@H](C)C(=O)N[C@H](C(=O)O)C(C)C)C(C)C (Octanoyl-VFELAV-OH)	> 100	> 40	> 40	> 40	> 40	> 40	> 40	> 100	> 40	> 40	> 100	> 100	> 100	> 100	> 100	> 40
